Assay results published in patent US20230089949A1, “SMALL MOLECULES FOR TREATING AGE-RELATED RETINAL DISEASES” (University of Pittsburgh - Of the Commonwealth System of …, priority 2020, published 2023).

Assays:
Aged Fischer 344 rats = assay: Histological analysis of retinal outer nuclear layer (ONL) in aged Fischer 344 rats (Example 1); format: in vivo, rat
Experimental: Aged Fischer 344 rats were treated with oral 8-AG (5 mg/kg/day for 6 weeks; drug delivered via the drinking water), or were a control, and the eyes of the rats were harvested for histological analysis of the retinal outer nuclear layer (ONL) and the results were compared with a corresponding histological analysis of young Fischer 344 rats (FIG. 8). With advance age, there is likely to be a loss of photoreceptors with associated thinning and eventual loss of the overlying ONL (see Schuman et al., Ophthalmology, 116:488-96.e2, 2009)
The orientation of each eye was randomly embedded and sectioned. The fixed eyes were placed in a histology processing cassette for serial alcohol based dehydration. Dehydrated eyes were embedded in paraffin, and retinal cross sections were cut at 6 μm thickness. Retinal cross sections near the optic nerve were stained by hematoxylin and eosin (H&E). Images of H&E-stained retinal cross sections were collected under 4× and 20× objectives. […]
In each retinal cross section image under the 20× objective, the outer nuclear layer (ONL) thickness was measured at 6 locations along the image to calculate the average ONL thickness. […]

aged F344 rat retinae [1] = assay: Retinal morphology (H&E, rhodopsin immunofluorescence) in F344 rat model of age-related photoreceptor degeneration (Example 2); format: in vivo
Experimental: To test the efficacy of 8-AG in photoreceptor degeneration, 8-AG was administered in two animal models including the F344 rat of age-related photoreceptor degeneration, and the Rho^P23H/+ knock-in mice of retinitis pigmentosa and examine the retinal morphology and function.
(§1) For treatment, female F344 rats were orally administered with 5 mg per kg body weight (bw) of 8-aminoguanine (8-AG) per day in the drinking water starting at 22-24 months of age for 8 weeks. Non-treated age-matched F344 rats and young adult F344 rats at 3-4 months of age were used as controls. RhoP^23H/+ mice were administered with 8-AG for 11 mg per kg bw per day by intraperitoneal injections starting from postnatal day (PND) 15 for five weeks. PBS treated Rho^P23H/+ and WT mice were used as controls.
Eyes were enucleated by a surgical scissor cutting around the eyeball. Each eye was opened with a cut at the cornea side of the limbus, cut horizontally at the edge of the cornea for a circle, corneas removed and lens isolated. Eyecups were incubated in freshly prepared 4% paraformaldehyde for 2 hr. Fixed eyecups were dehydrated sequentially in 5, 10, 20 and 40% sucrose solutions in phosphate buffered saline (PBS) for 30 min each at room temperature. Finally, eyecups were incubated in a mixture of 40% sucrose in PBS and O.C.T. compound (FisherScientific, Houston, Tex. USA) at 3:7 volume ratio overnight at 4° C. before they are embedded in the same mixed solution in an orientation-specific manner and frozen in liquid nitrogen-bathed isobutene. A microtome made twelve-micron retinal cross-sections at −18° C. and those containing the optic nerve head were applied onto a SUPERFROST™ glass slide (FisherScientific, Houston, Tex. USA). These slides were then used for IHC.
After rehydration and permeabilization in PBST for 15 min, retinal sections were incubated in 5% goat serum for 30 min, and then they were incubated with 5% goat serum containing the primary antibodies. […]

Rho^P23H/+ knock-in mice = assay: Retinal morphology and scotopic ERG in Rho P23H/+ knock-in mice of retinitis pigmentosa; format: in vivo, mouse; conditions: 11 mg per kg bw per day i.p. for five weeks from PND 15
Experimental: as §1
(§2) Electroretinogram (ERG): ERG was performed using the Celeris system (Diagnosys, Lowell, Mass., USA). Rats were placed in the dark overnight. During the ERG test, protect the rats from the light from the beginning to the finish of the scotopic test, only use the dim light to do the preparation in the dark room. Pupils were dilated with 1% tropicamide (Akorn, Lake Forest, Ill., USA) and 2.5% phenylephrine (Sigma). Rats were anesthetized with an intraperitoneal injection of ketamine at 80 mg/kg bw and xylazine at 7 mg/kg bw. Eyes were lubricated by a 0.3% hypromellose eye gel (Alcon, Fort Worth, Tex., USA). A heating pad was used to maintain body temperature at 37° C. Scotopic ERG responses of dark-adapted eyes to ten flashes from 0.0001 cd·s/m^2 to 100 cd·s/m^2 were recorded and averaged from three sweeps per flash intensity with inter-sweep intervals of 10 to 30 s. After exposed to 10 cd/m^2 illumination for 10 min, the photopic ERG responses were recorded from the light-adapted eyes in response to flashes from 0.01 cd·s/m^2 to 100 cd·s/m^2 in addition to a 10 cd/m^2 background light. P-values were calculated by a two-way ANOVA to determine the statistical significance between the response amplitudes in the 8-AG treated group and untreated group. Factor 1, treatment condition; and factor 2, flash intensity.
Retinal histology and H&E staining: To examine the structure of the aging rats' retinas treated with 8-AG, the rats were euthanized, their eyes removed, and fixed in 4% paraformaldehyde and 1% glutaraldehyde before paraffin sectioning. […]

aged F344 rat retinae [2] = assay: Immunoblots of protein markers of mitochondria function, oxidative stress and apoptosis in aged F344 rat retinae; format: in vivo
Experimental: A range of protein markers of mitochondria function and apoptosis was probed in the retinae of young, aged and 8-AG treated aged F344 rat retinae, as well as the mitochondrial superoxide dismutase 2 (SOD2), an enzyme protecting tissue from damage by ROS, using immunoblots. […] The fact that chronic 8-AG […] retinal levels of SOD2 is consistent with reduced retinal oxidative stress in 8-AG-treated aged rats.
as §1
Western Immunoblotting: The freshly isolated retinae were homogenized using Lysing Matrix D in a FASTPREP-24™ instrument (MP Biomedicals) in HBSS buffer (5 mM KCl, 0.3 mM KH2PO4, 138 mM NaCl, 4 mM NaHCO3, 0.3 mM Na2HPO4, 5.6 mM glucose, and 10 mM HEPES, pH 7.4) containing complete protease inhibitor cocktail (1 tablet/10 ml, Roche) and phosphatase inhibitor cocktail (MilliporeSigma, 1:100). After centrifugation (16200 g, 15 minutes at 4° C.), the membrane protein fraction was prepared by suspending the membrane pellets in lysis buffer containing 0.3M NaCl, 50 mM Tris-HCl (pH 7.6), and 0.5% Triton X-100, as well as the same concentration of protease inhibitors as above. The suspensions were incubated on ice and centrifuged (16200 g, 15 minutes at 4° C.). The protein concentrations of the combined supernatants were determined using the Pierce BCA protein assay (Thermo Fisher Scientific). Two μg of unheated total protein was loaded on a 4%-15% TGX Stain-Free SDS-PAGE gel (Bio-Rad). As a reliable loading control, total protein measurement per sample was determined using Bio-Rad Stain Free SDS-PAGE gel technology. UV-activated protein fluorescence was imaged on a ChemiDoc MP (Bio-Rad). The gel was electrotransferred to polyvinylidene fluoride membrane and immunoblotted with 1D4 anti-rhodopsin antibody (5 μg/mL). After washing in TBS-T, the membranes were incubated with secondary antibody, sheep anti-mouse HRP (Southern Biotech), developed using WESTERNBRIGHT® Quantum (Advansta), and imaged on a ChemiDoc MP (BioRad). The volume (intensity) of each protein species was determined and normalized to total protein using Image Lab software (Bio-Rad).

aged F344 rat retinae [3] = assay: Immunofluorescence of GFAP and CD68 in aged F344 rat retinae; format: in vivo; conditions: 5 mg/kg bw per day in drinking water for eight weeks from 22 months of age
Experimental: Glial cells are activated upon photoreceptor degeneration, and retinal immune response is thought to contribute to photoreceptor degeneration as the disease progresses. Activated macrophages were reported to not only scavenge dead cells, but also can phagocytose living photoreceptors (McMenamin et al. Prog. Retin. Eye Res. 70, 85-98, doi:10.1016/j.preteyeres. 2018.12.002 (2019)).
as §1
Eyes were enucleated by a surgical scissor cutting around the eyeball. Each eye was opened with a cut at the cornea side of the limbus, cut horizontally at the edge of the cornea for a circle, corneas removed and lens isolated. Eyecups were incubated in freshly prepared 4% paraformaldehyde for 2 hr. Fixed eyecups were dehydrated sequentially in 5, 10, 20 and 40% sucrose solutions in phosphate buffered saline (PBS) for 30 min each at room temperature. […]

aged F344 rat retinae [4] = assay: SD-OCT of ONL thickness in aged F344 rats, 0 vs 4 wks; format: in vivo
Experimental: (§3) The potent efficacy of 8-AG in preserving retinal morphology and function of the aged F344 rats and Rho^P23H/+ mice were shown in FIGS. 11A-11D and […].
Optical coherence tomography (OCT): To assess the 8-AG treatment on old F344 rats, ultrahigh-resolution SD-OCT (Bioptigen, Morrisville, N.C.) was performed for in vivo imaging of rats retinas. Pupils were dilated with 1% tropicamide (Akorn, Lake Forest, Ill., USA) and 2.5% phenylephrine (Sigma). Rats were anesthetized with an intraperitoneal injection of ketamine at 80 mg/kg bw and xylazine at 7 mg/kg bw. Eyes were lubricated by a 0.3% hypromellose eye gel (Alcon, Fort Worth, Tex., USA). A heating pad was used to maintain body temperature; the A scan/B scan ratio was set at 1200 lines. Five frames of OCT images scanned at 0° were acquired in the B-mode, averaged, and saved as pdf files. To measure changes to photoreceptors in the retinas assess the effect of 8-AG on retinal protection, the thickness of the ONL was measured along with the scanned SD-OCT image at 6 points from the temporal to nasal end of the retina. A graph of ONL thicknesses was plotted to obtain the means and standard error (SE) of the samples.

aged F344 rat retinae [5] = assay: Electroretinogram (ERG) of aged F344 rats, 0 vs 4 wks; format: in vivo; conditions: 5 mg/kg bw per day in drinking water; 4 wks vs 0 wk
Experimental: as §3, §2

Dahl salt-sensitive rats [6] = assay: Chronic effects of 8-AG in Dahl salt-sensitive rats on high salt diet (MRI, organ histology); format: in vivo, rat; conditions: high salt diet with 8AG for 40 days; independent veterinary pathology lab
Source text: (§4) While the genetic loss of PNPase activity is toxic and results in a compromised immune system, partial inhibition of PNPase by pharmacological administration is safe. The chronic effects of 8-AG have been examined in Dahl salt-sensitive rats, which is a model of genetic hypertension that is exacerbated by providing a high salt diet. […] Next, organs from these animals were examined histologically by an independent veterinary pathology lab.

animals = assay: Observed toxicity in the animal experiments that were performed; format: in vivo
Source text: as §4

Dahl salt-sensitive rats [7] = conditions: high salt diet with 8AG for 40 days; vs untreated high-salt control; cited from earlier work
[8] = 5 mg per kg bw per day in drinking water for 8 weeks from 22 months of age, central, equatorial and peripheral sites, vs untreated age-matched group
[9] = 5 mg/kg bw per day in drinking water from 24 months, 4 wks compared to before treatment

## Nc1nc2[nH]c(N)nc2c(=O)[nH]1 [8-AG, 8-aminoguanine]
Aged Fischer 344 rats; oral 8-AG 5 mg/kg/day for 6 weeks via drinking water, edge of old retinae, retinal edges with preserved ONL
  ONL preservation in retinal edges: 7 out of 8
Aged Fischer 344 rats; oral 8-AG 5 mg/kg/day for 6 weeks, treated vs untreated old rats, independent of retinal location
  ONL thickness, effect of treatment (2-way ANOVA): significant
Aged F344 rat retinae [1]; [8]
  ONL thickness: distinctively increased
  OS/IS thickness: distinctively increased
Aged F344 rat retinae [1]; 5 mg per kg bw per day in drinking water for 8 weeks, vs untreated aged retinae
  Rhodopsin levels (immunofluorescence): increased
Rho^P23H/+ knock-in mice; H&E
  ONL layer thickness: thicker
Rho^P23H/+ knock-in mice; vs vehicle control group
  scotopic ERG a-wave response: significantly higher
  scotopic ERG b-wave response: significantly higher
Aged F344 rat retinae [2]; chronic oral 8-AG 5 mg/kg for 8 wks, immunoblot, aged rats
  retinal levels of SOD2: decreased
Aged F344 rat retinae [2]; oral 8-AG 5 mg/kg for 8 wks, aged F344 retina
  Rhodopsin levels (immunoblot): restored
Aged F344 rat retinae [2]; oral 8-AG 5 mg/kg for 8 wks, immunoblot
  retinal MFN2 levels: further increased
Aged F344 rat retinae [2]; oral 8-AG 5 mg/kg for 8 wks, immunoblot, aged retinae
  cleaved CASP3: reduced
Aged F344 rat retinae [3]
  GFAP staining: did not affect
  number of CD68+ cells: significantly reduced
Aged F344 rat retinae [4]; [9]
  ONL thickness, nasal side (SD-OCT): slight increase
  ONL thickness, temporal side (SD-OCT): no change
Aged F344 rat retinae [4]; single exemplary retina, 4 wks of treatment
  ONL at sites where it had disappeared before treatment (SD-OCT): reappeared
Aged F344 rat retinae [5]
  photopic b wave responses: did not affect
  scotopic a-wave: significantly increased
  scotopic b-wave: significantly increased
Dahl salt-sensitive rats [6]
  microscopic alterations in heart, kidney, liver, aorta, adrenal gland (histology): No treatment-related microscopic alterations
animals
  toxicity: no observed toxicity
Dahl salt-sensitive rats [7]
  strokes in the cerebral cortex and subcortical areas (MRI): protected from strokes
